Test results taken from patent US9988635B2, “Modulation of growth hormone receptor expression and insulin-like growth factor expression” (Antisense Therapeutics Limited, priority 2003, dated 2018).
In the oligonucleotide strings, read from the 5' end, every base follows the letter of its sugar. An asterisk marks phosphorothioate; unmarked linkages are phosphodiester. Other units and linkages are bracketed, terminal groups are in braces. A string of capitals states the bases alone. e = 2'-O-(2-methoxyethyl) (MOE); [5mC] = 5-methylcytosine; d = 2'-deoxy (DNA)

tested on: human growth hormone receptor mRNA; experiment: Inhibition of human growth hormone receptor mRNA levels in MCF7 cells, quantitative real-time PCR; assay type: cell-based; parameters: concentration or dose not given beside the values; settings: averages from three experiments
Experimental: The human breast carcinoma cell line MCF-7 was obtained from the American Type Culture Collection (Manassas, Va.). MCF-7 cells were routinely cultured in DMEM low glucose (Gibco/Life Technologies, Gaithersburg, Md.) supplemented with 10% fetal calf serum (Gibco/Life Technologies, Gaithersburg, Md.). Cells were routinely passaged by trypsinization and dilution when they reached 90% confluence. Cells were seeded into 96-well plates (Falcon-Primaria #3872) at a density of 7000 cells/well for use in RT-PCR analysis.
When cells reached 65-75% confluency, they were treated with oligonucleotide. For cells grown in 96-well plates, wells were washed once with 100 μL OPTI-MEM™-1 reduced-serum medium (Invitrogen Corporation, Carlsbad, Calif.) and then treated with 130 μL of OPTI-MEM™-1 containing 3.75 μg/mL LIPOFECTIN™ (Invitrogen Corporation, Carlsbad, Calif.) and the desired concentration of oligonucleotide. Cells are treated and data are obtained in triplicate. After 4-7 hours of treatment at 37° C., the medium was replaced with fresh medium. Cells were harvested 16-24 hours after oligonucleotide treatment.
Total RNA was isolated using an RNEASY 96™ kit and buffers purchased from Qiagen Inc. (Valencia, Calif.) following the manufacturer's recommended procedures. Briefly, for cells grown on 96-well plates, growth medium was removed from the cells and each well was washed with 200 μL cold PBS. 150 μL Buffer RLT was added to each well and the plate vigorously agitated for 20 seconds. 150 μL of 70% ethanol was then added to each well and the contents mixed by pipetting three times up and down. The samples were then transferred to the RNEASY 96™ well plate attached to a QIAVAC™ manifold fitted with a waste collection tray and attached to a vacuum source. Vacuum was applied for 1 minute. 500 μL of Buffer RW1 was added to each well of the RNEASY 96™ plate and incubated for 15 minutes and the vacuum was again applied for 1 minute. An additional 500 μL of Buffer RW1 was added to each well of the RNEASY 96™ plate and the vacuum was applied for 2 minutes. 1 mL of Buffer RPE was then added to each well of the RNEASY 96™ plate and the vacuum applied for a period of 90 seconds. The Buffer RPE wash was then repeated and the vacuum was applied for an additional 3 minutes. The plate was then removed from the QIAVAC™ manifold and blotted dry on paper towels. The plate was then re-attached to the QIAVAC™ manifold fitted with a collection tube rack containing 1.2 mL collection tubes. RNA was then eluted by pipetting 140 μL of RNAse free water into each well, incubating 1 minute, and then applying the vacuum for 3 minutes.
Quantitation of growth hormone receptor mRNA levels was accomplished by real-time quantitative PCR using the ABI PRISM™ 7600, 7700, or 7900 Sequence Detection System (PE-Applied Biosystems, Foster City, Calif.) according to manufacturer's instructions. This is a closed-tube, non-gel-based, fluorescence detection system which allows high-throughput quantitation of polymerase chain reaction (PCR) products in real-time. As opposed to standard PCR in which amplification products are quantitated after the PCR is completed, products in real-time quantitative PCR are quantitated as they accumulate. This is accomplished by including in the PCR reaction an oligonucleotide probe that anneals specifically between the forward and reverse PCR primers, and contains two fluorescent dyes. A reporter dye (e.g., FAM or JOE, obtained from either PE-Applied Biosystems, Foster City, Calif., Operon Technologies Inc., Alameda, Calif. or Integrated DNA Technologies Inc., Coralville, Iowa) is attached to the 5′ end of the probe and a quencher dye (e.g., TAMRA, obtained from either PE-Applied Biosystems, Foster City, Calif., Operon Technologies Inc., Alameda, Calif. or Integrated DNA Technologies Inc., Coralville, Iowa) is attached to the 3′ end of the probe. When the probe and dyes are intact, reporter dye emission is quenched by the proximity of the 3′ quencher dye. […]

Point of comparison: “272341 (antisense eG*eA*eG*eG*e[5mC]*dT*dA*dT*dA*dG*dA*dT*d[5mC]*dT*dT*eA*eT*e[5mC]*eT*e[5mC]) [compound 272341]”, “% INHIB of human growth hormone receptor mRNA levels” value 65%. Against it:
- 272320 (antisense eA*eG*eA*eT*eT*dG*dT*dG*dT*dT*d[5mC]*dA*d[5mC]*d[5mC]*dT*e[5mC]*e[5mC]*eT*e[5mC]*eT) [compound 272320] — higher, 70%
- 272321 (antisense eA*eA*e[5mC]*e[5mC]*e[5mC]*dA*dA*dG*dA*dG*dT*d[5mC]*dA*dT*d[5mC]*eA*e[5mC]*eT*eG*eT) [compound 272321] — lower, 64%
- 272322 (antisense e[5mC]*eT*eG*eG*e[5mC]*dT*d[5mC]*dA*dT*d[5mC]*dA*dA*dT*dA*dT*e[5mC]*eT*eA*eG*e[5mC]) [compound 272322] — higher, 84%
- 272323 (antisense eT*eG*eT*eG*eT*d[5mC]*dT*dG*dA*dT*dT*d[5mC]*d[5mC]*dT*d[5mC]*eA*eG*eT*e[5mC]*eT) [compound 272323] — higher, 67%
- 272324 (antisense eT*eA*eT*eG*eT*d[5mC]*dA*dT*dT*dG*dG*d[5mC]*dA*dT*dT*eG*eA*eA*eA*eT) [compound 272324] — lower, 53%
- 272325 (antisense eA*eA*eG*eG*e[5mC]*dA*dT*dA*dA*dG*dA*dG*dA*dT*d[5mC]*eT*eG*e[5mC]*eT*eT) [compound 272325] — higher, 66%
- 272326 (antisense eA*e[5mC]*eT*e[5mC]*eA*dG*d[5mC]*dT*d[5mC]*d[5mC]*dT*dT*d[5mC]*dA*dG*eT*eA*eG*eG*eA) [compound 272326] — higher, 77%
- 272327 (antisense eG*eG*eA*e[5mC]*eA*dT*d[5mC]*d[5mC]*d[5mC]*dT*dG*d[5mC]*d[5mC]*dT*dT*eA*eT*eT*e[5mC]*eT) [compound 272327] — lower, 60%
- 272328 (antisense eG*eG*e[5mC]*eA*eT*dT*dG*dT*d[5mC]*d[5mC]*dA*dT*dA*dA*dG*eG*eA*eA*eG*eT) [compound 272328] — higher, 85%
- 272329 (antisense eA*e[5mC]*eT*eT*eT*dT*dT*dG*dG*d[5mC]*dA*dT*d[5mC]*dT*dG*e[5mC]*e[5mC]*eT*e[5mC]*eA) [compound 272329] — lower, 63%
- 272330 (antisense eG*eA*eT*eG*e[5mC]*dA*d[5mC]*dT*dT*dT*dT*dT*dG*dG*d[5mC]*eA*eT*e[5mC]*eT*eG) [compound 272330] — lower, 47%
- 272331 (antisense e[5mC]*eA*eG*eT*e[5mC]*dG*d[5mC]*dA*dT*dT*dG*dA*dG*dT*dA*eT*eG*eA*eG*eG) [compound 272331] — higher, 67%
- 272332 (antisense e[5mC]*eT*e[5mC]*eT*eT*dT*dG*dT*d[5mC]*dA*dG*dG*d[5mC]*dA*dA*eG*eG*eG*e[5mC]*eA) [compound 272332] — higher, 75%
- 272333 (antisense eG*eT*eG*e[5mC]*eT*d[5mC]*dA*d[5mC]*dA*dT*dA*dG*d[5mC]*d[5mC]*dA*e[5mC]*eA*eT*eG*eA) [compound 272333] — higher, 72%
- 272334 (antisense eA*eA*eG*eA*eA*dA*dG*dG*d[5mC]*dT*dA*dA*dG*dG*d[5mC]*eA*eT*eG*eA*eT) [compound 272334] — lower, 61%
- 272335 (antisense eA*eA*eA*eT*eA*d[5mC]*dG*dT*dA*dG*d[5mC]*dT*d[5mC]*dT*dT*eG*eG*eG*eA*eA) [compound 272335] — lower, 47%
- 272336 (antisense e[5mC]*eA*eA*eT*e[5mC]*dA*d[5mC]*dT*dG*d[5mC]*dT*dA*d[5mC]*dT*dA*eA*eA*e[5mC]*eA*eG) [compound 272336] — higher, 69%
- 272337 (antisense eA*eA*eA*e[5mC]*eA*dT*dA*dG*d[5mC]*d[5mC]*dA*dT*dT*d[5mC]*dA*eA*eT*eG*e[5mC]*eT) [compound 272337] — lower, 39%
- 272339 (antisense eG*eT*eT*eT*eT*dA*d[5mC]*dA*dT*dA*dT*d[5mC]*d[5mC]*dA*dA*eA*e[5mC]*eT*eA*eT) [compound 272339] — higher, 72%
- 272340 (antisense e[5mC]*eA*eT*e[5mC]*eA*dA*d[5mC]*d[5mC]*dA*dA*dG*dA*dT*dT*dT*eG*eG*eT*eG*eA) [compound 272340] — higher, 69%
- 272342 (antisense eT*eA*eG*eT*eG*dA*dG*dA*dA*dA*dG*dA*dA*dA*dG*eT*eT*eT*e[5mC]*eT) [compound 272342] — lower, 45%
- 272343 (antisense eA*eA*eT*eG*e[5mC]*dT*d[5mC]*dT*d[5mC]*dA*dA*dG*dA*dA*dT*eG*eA*eT*eG*eT) [compound 272343] — lower, 48%
- 272344 (antisense eA*e[5mC]*eA*e[5mC]*eT*d[5mC]*dA*dA*dT*dT*d[5mC]*dT*dA*dG*d[5mC]*eT*eT*eT*eT*e[5mC]) [compound 272344] — lower, 60%
- 272345 (antisense e[5mC]*eA*eT*e[5mC]*eT*dA*dT*dT*dA*d[5mC]*dA*dA*dA*dT*dA*eA*e[5mC]*eA*eT*eG) [compound 272345] — lower, 24%
- 272346 (antisense e[5mC]*eT*e[5mC]*eT*eT*dG*dG*dA*dG*dA*dA*dA*dA*d[5mC]*d[5mC]*eA*eT*eA*eG*e[5mC]) [compound 272346] — higher, 67%
- 272347 (antisense eT*e[5mC]*eT*eA*e[5mC]*dA*d[5mC]*dT*dG*dA*dT*dG*dA*dT*dA*e[5mC]*eT*eT*eT*eA) [compound 272347] — lower, 62%
- 272348 (antisense e[5mC]*eA*e[5mC]*eA*eG*d[5mC]*dT*dT*dT*dG*dA*dA*dT*dT*dG*eA*eA*eT*eT*eA) [compound 272348] — lower, 57%
- 272349 (antisense eA*eG*eT*e[5mC]*eT*dT*d[5mC]*d[5mC]*dA*dA*dA*d[5mC]*dA*d[5mC]*dA*e[5mC]*eA*eG*e[5mC]*eT) [compound 272349] — higher, 68%
- 272350 (antisense eA*eG*eG*e[5mC]*eT*dG*dT*dT*dG*dT*dG*dA*dA*dA*dT*eA*eG*eT*eA*eA) [compound 272350] — higher, 67%
- 272351 (antisense eA*eT*eA*eG*eA*dA*dA*dT*dG*dT*dT*dG*dT*d[5mC]*dA*eG*eG*e[5mC]*eT*eG) [compound 272351] — lower, 57%
- 272352 (antisense e[5mC]*e[5mC]*eA*eA*eA*dA*dT*dG*dA*d[5mC]*dA*dT*dT*d[5mC]*dT*eG*eA*eG*eA*e[5mC]) [compound 272352] — higher, 77%
- 272353 (antisense eA*eT*eA*eA*eT*dG*dG*d[5mC]*dT*dT*dA*dT*dG*dT*dG*eG*e[5mC]*e[5mC]*eA*e[5mC]) [compound 272353] — higher, 72%
- 272354 (antisense eA*eG*eT*eT*eA*dT*dG*dT*dG*dA*d[5mC]*d[5mC]*d[5mC]*dT*dG*eA*eT*eT*eG*eA) [compound 272354] — the same, 65%
- 272355 (antisense eT*eT*eG*eA*eG*dT*dG*dT*dT*d[5mC]*d[5mC]*dT*dA*dA*dA*eA*eT*eG*eA*eA) [compound 272355] — lower, 24%
